Measured values reported in ChEMBL document CHEMBL4811310, “Antimalarial activity of 2,6-dibenzylidenecyclohexanone derivatives” (Bioorg Med Chem Lett, 2021).
≈ marks a conversion by molar mass, not a printed value.

Tests used:
BJ = test: Cytotoxicity against human BJ cells assessed as reduction in cell viability; assay type: cell-based
Plasmodium falciparum [1] = test: Antimalarial activity against CQ-sensitive Plasmodium falciparum 3D7 MRA-102 infected in human O-positive erythrocytes assessed as inhibition of parasite growth; assay type: functional, organism-based; settings: 3D7 MRA-102, Erythrocyte
[2] = Solubility in PBS buffer at pH 7.4; assay type: physicochemical
[3] = Therapeutic index, ratio of EC50 for cytotoxicity against human BJ cells to EC50 for antimalarial activity against CQ-sensitive Plasmodium falciparum 3D7 MRA-102 infected in human O-positive erythrocytes; assay type: toxicity, cell-based; settings: read-out: Ratio EC50
[4] = Cytotoxicity against human BJ cells assessed as reduction in cell viability at 58 uM; assay type: cell-based; settings: read-out: INH
Plasmodium falciparum [5] = test: Antimalarial activity against Plasmodium falciparum V1S infected in human erythrocytes assessed as inhibition of parasite growth; assay type: functional, organism-based; settings: Erythrocyte
Plasmodium falciparum [6] = test: Antimalarial activity against Plasmodium falciparum K1 infected in human erythrocytes assessed as inhibition of parasite growth; assay type: functional, organism-based; settings: K1, Erythrocyte
Plasmodium falciparum [7] = test: Antimalarial activity against CQ-sensitive Plasmodium falciparum 3D7 MRA-102 infected in human O-positive erythrocytes assessed as inhibition of parasite growth at 16 uM; assay type: functional; settings: 3D7 MRA-102, Erythrocyte

Row | SMILES | solubility [2] | EC50 (BJ) | EC50 (Plasmodium falciparum [1]) | selectivity ratio [3] | cytotoxicity at 58 µM [4] | EC50 (Plasmodium falciparum [5]) | EC50 (Plasmodium falciparum [6]) | inhibition at 16 µM (Plasmodium falciparum [7])
1 | CC(=O)[C@]1(O)Cc2c(O)c3c(c(O)c2[C@@H](O[C@H]2C[C@H](N)[C@H](O)[C@H](C)O2)C1)C(=O)c1ccccc1C3=O [IDARUBICIN] |  |  |  |  | 100% |  |  | 
2 | N#CC1(c2ccccc2)C/C(=C\c2cccc(C(F)(F)F)c2)C(=O)/C(=C/c2cccc(C(F)(F)F)c2)C1 (configuration not stated) |  | 570 nM | 331 nM | 2 |  | 250 nM | 530 nM | 
3 | N#CC1(c2ccccc2)C/C(=C\c2ccccc2)C(=O)/C(=C/c2ccccc2)C1 (configuration not stated) | < 1 µM | 5850 nM | 1360 nM | 4 |  |  |  | 
4 | N#CC1(c2ccccc2)C/C(=C\c2cccc(F)c2)C(=O)/C(=C/c2cccc(F)c2)C1 (configuration not stated) | < 1 µM | 2270 nM | 1130 nM | 2 |  |  |  | 
5 | CCCSc1ccc2nc(NC(=O)OC)[nH]c2c1 [ALBENDAZOLE] | < 1 µM |  |  |  |  |  |  | 
6 | NC(=O)N1c2ccccc2C=Cc2ccccc21 [CARBAMAZEPINE] | > 100 µM |  |  |  |  |  |  | 
7 | O[C@@H](c1cc(C(F)(F)F)nc2c(C(F)(F)F)cccc12)[C@H]1CCCCN1 [(S,R)-MEFLOQUINE] |  |  |  |  |  |  |  | 100%

Second part, led by results:

Row | solubility [2] | SMILES | EC50 (BJ) | EC50 (Plasmodium falciparum [1]) | selectivity ratio [3] | cytotoxicity at 58 µM [4] | EC50 (Plasmodium falciparum [5]) | EC50 (Plasmodium falciparum [6]) | inhibition at 16 µM (Plasmodium falciparum [7])
8 | < 1 µM | O=C1/C(=C/c2cccc(C(F)(F)F)c2)CCC/C1=C\c1cccc(C(F)(F)F)c1 | 23500 nM | 2290 nM | 10 |  |  |  | 
9 | 2.3 µM (≈ 1.19 µg/mL) | N#CC1(c2ccccc2)CC(Cc2cccc(C(F)(F)F)c2)C(=O)C(Cc2cccc(C(F)(F)F)c2)C1 (configuration not stated) | > 24000 nM | 1030 nM | > 23 |  |  |  | 
10 | 1.4 µM (≈ 0.577 µg/mL) | O=C1/C(=C/c2cccc(C(F)(F)F)c2)COC/C1=C\c1cccc(C(F)(F)F)c1 | 23700 nM | 1160 nM | 20 |  |  |  | 
11 | < 1 µM | N#CC1(c2ccccc2)C/C(=C\c2ccc(C(F)(F)F)cc2)C(=O)/C(=C/c2ccc(C(F)(F)F)cc2)C1 (configuration not stated) | 406 nM | 207 nM | 2 |  |  |  | 
12 | 1.1 µM (≈ 0.535 µg/mL) | O=C1/C(=C/c2cccc(C(F)(F)F)c2)CC(c2ccccc2)C/C1=C\c1cccc(C(F)(F)F)c1 (configuration not stated) | 1530 nM | 491 nM | 3 |  |  |  | 
13 | 2.5 µM (≈ 1.28 µg/mL) | N#CC1(c2ccccc2)C/C(=C\c2cccc(C(F)(F)F)c2)C(O)/C(=C/c2cccc(C(F)(F)F)c2)C1 (configuration not stated) | > 24000 nM | 3210 nM | > 7 |  |  |  | 
14 | < 1 µM | CC(C)(C)C1C/C(=C\c2cccc(C(F)(F)F)c2)C(=O)/C(=C/c2cccc(C(F)(F)F)c2)C1 (configuration not stated) | > 24000 nM | 641 nM | > 37 |  |  |  | 
15 | 1.2 µM (≈ 0.514 µg/mL) | O=C1/C(=C/c2cccc(C(F)(F)F)c2)CSC/C1=C\c1cccc(C(F)(F)F)c1 | 23200 nM | 820 nM | 28 |  |  |  | 
16 | < 1 µM | CC1C/C(=C\c2cccc(C(F)(F)F)c2)C(=O)/C(=C/c2cccc(C(F)(F)F)c2)C1 (configuration not stated) | 20100 nM | 1100 nM | 18 |  |  |  | 
17 | < 1 µM | O=C1/C(=C/c2cccc(C(F)(F)F)c2)CS(=O)(=O)C/C1=C\c1cccc(C(F)(F)F)c1 | 120 nM | 393 nM | < 1 |  |  |  | 
